# Assay results published in patent US8173635B2, “Kinase inhibitors” (Vertex Pharmaceuticals Incorporated, priority 2007, dated 2012).
# Experiments:
# Type in all cases: biochemical
# [1] = target: PKC delta kinase (Homo sapiens, UniProt Q05655); assay: PKC delta kinase inhibition, coupled-enzyme NADH absorbance assay (Ki); details: 150 μM ATP, 46 nM PKC delta, 30° C.; read-out: Ki PKC delta
# Procedure, shortened: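 Assay buffer was 100 mM HEPES pH 7.5, 10 mM MgCl2, 25 mM NaCl, 0.1 mM EDTA, 0.01% Brij. Enzyme buffer was equilibrated with compound in DMSO for 10 min at 30 °C. Ki values were derived by non-linear regression of initial rate data.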
# [2] = target: PKC theta kinase (Homo sapiens, UniProt Q04759); assay: PKC theta kinase inhibition, coupled-enzyme NADH absorbance assay (Ki); details: 240 μM ATP, 18 nM PKC theta, 30° C.; read-out: Ki PKC theta
# PKC theta kinase, sequence (Q04759 whole entry): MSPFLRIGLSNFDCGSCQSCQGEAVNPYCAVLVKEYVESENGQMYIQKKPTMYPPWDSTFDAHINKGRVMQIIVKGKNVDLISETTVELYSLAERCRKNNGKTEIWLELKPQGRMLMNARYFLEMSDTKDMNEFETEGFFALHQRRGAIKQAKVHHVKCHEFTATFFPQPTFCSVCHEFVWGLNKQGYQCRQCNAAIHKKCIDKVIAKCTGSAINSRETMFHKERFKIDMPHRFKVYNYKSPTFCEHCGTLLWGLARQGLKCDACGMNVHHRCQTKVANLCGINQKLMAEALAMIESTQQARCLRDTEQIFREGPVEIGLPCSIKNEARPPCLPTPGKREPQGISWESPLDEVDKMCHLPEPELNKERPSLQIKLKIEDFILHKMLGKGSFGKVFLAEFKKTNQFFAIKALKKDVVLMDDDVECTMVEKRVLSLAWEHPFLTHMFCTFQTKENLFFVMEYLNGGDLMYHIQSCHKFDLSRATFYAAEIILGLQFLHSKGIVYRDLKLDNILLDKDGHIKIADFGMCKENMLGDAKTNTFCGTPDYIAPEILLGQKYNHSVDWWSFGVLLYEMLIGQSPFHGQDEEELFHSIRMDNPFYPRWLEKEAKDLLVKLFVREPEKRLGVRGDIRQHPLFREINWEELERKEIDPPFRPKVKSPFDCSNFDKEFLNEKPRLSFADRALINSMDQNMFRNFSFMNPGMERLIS
# Procedure, shortened: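 Enzyme and compound equilibrated 10 min at 30 °C before reaction in HEPES pH 7.5 buffer with MgCl2, NaCl, EDTA and Brij. Activity tracked as NADH loss at 340 nm through a coupled system. Initial-rate data fitted by non-linear regression to give Ki.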
# [3] = target: PKC alpha kinase (Homo sapiens, UniProt P17252); assay: PKC alpha kinase inhibition, coupled-enzyme NADH absorbance assay (Ki); details: 130 μM ATP, 4.5 nM PKC alpha, 30° C.; read-out: Ki PKC alpha
# PKC delta kinase, sequence (Q05655 whole entry): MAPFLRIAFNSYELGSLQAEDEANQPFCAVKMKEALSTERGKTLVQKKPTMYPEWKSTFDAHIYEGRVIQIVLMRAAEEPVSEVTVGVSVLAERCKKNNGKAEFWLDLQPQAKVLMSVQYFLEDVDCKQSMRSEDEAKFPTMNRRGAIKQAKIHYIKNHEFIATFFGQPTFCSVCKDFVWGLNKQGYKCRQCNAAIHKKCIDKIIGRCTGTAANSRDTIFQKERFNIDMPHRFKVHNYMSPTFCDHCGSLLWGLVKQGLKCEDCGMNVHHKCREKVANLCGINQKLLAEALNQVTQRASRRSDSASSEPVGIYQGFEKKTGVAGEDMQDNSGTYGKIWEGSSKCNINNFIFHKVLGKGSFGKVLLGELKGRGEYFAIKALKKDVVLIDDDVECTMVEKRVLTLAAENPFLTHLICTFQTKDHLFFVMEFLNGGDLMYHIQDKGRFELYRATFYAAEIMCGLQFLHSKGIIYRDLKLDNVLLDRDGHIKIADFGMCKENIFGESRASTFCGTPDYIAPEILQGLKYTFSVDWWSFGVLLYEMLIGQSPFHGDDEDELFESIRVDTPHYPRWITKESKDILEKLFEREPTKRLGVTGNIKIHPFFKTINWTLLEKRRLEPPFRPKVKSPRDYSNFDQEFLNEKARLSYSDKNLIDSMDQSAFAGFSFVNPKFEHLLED
SMILES,Ki [1] [nM],Ki [2] [nM],Ki [3] [nM]
CC(O)c1cc(-c2ccnc3[nH]ncc23)cc(C(C)(C)C#N)c1 (stereo not drawn) [Compound 22],> 2800,< 500,> 2800
N#CC1(c2cc(CCCN)cc(-c3ccnc4[nH]ncc34)c2)CC1 [Compound 301],< 500,< 50,< 2800
CC(C)(C#N)c1cc(CCCO)cc(-c2ccnc3[nH]ncc23)c1 [Compound 78],< 2800,< 50,< 2800
CCc1cc(-c2ccnc3[nH]nc(C(F)(F)F)c23)cc(C2(CN)CCC2)c1 [Compound 272],< 2800,< 50,< 500
N#CCC1(c2cccc(-c3ccnc4[nH]ncc34)c2)CCNC1 (stereo not drawn) [Compound 200],< 500,< 50,< 500
OCC1(c2cccc(-c3ccnc4[nH]nc(C(F)(F)F)c34)c2)CCC1 [Compound 291],< 2800,< 50,> 1200
CCC1(c2cccc(-c3ccnc4[nH]nc(C(F)(F)F)c34)c2)CNC(=O)O1 (stereo not drawn) [Compound 288],< 2800,< 50,< 500
CC(O)Cc1cc(-c2ccnc3[nH]ncc23)cc(C(C)(C)C#N)c1 (stereo not drawn) [Compound 79],> 2800,< 500,> 2800
"CCC(C)(CN)c1cccc(-c2ccnc3[nH]nc(Cl)c23)c1 (stereo not drawn) [Compound 204, 2-(3-(3-chloro-1H-pyrazolo[3,4-b]pyridin-4-yl)phenyl)-2-methylbutan-1-amine]",< 50,< 50,< 50
CC(C)=CC1(c2cccc(-c3ccnc4[nH]ncc34)c2)CCNC1 (stereo not drawn) [Compound 199],< 500,< 50,< 500
OCC1(c2cccc(-c3ccnc4[nH]nc(C(F)(F)F)c34)c2)CC1 [Compound 290],< 500,< 50,< 2800
N#CCC1(c2cccc(-c3ccnc4[nH]ncc34)c2)CNC1 [Compound 192],< 500,< 50,< 500
N#CC1(c2cc(CC(N)=O)cc(-c3ccnc4[nH]nc(C(F)(F)F)c34)c2)CC1 [Compound 329],> 1200,< 50,> 1200
CC(C)(C#N)c1cc(N)cc(-c2ccnc3[nH]ncc23)c1 [Compound 13],< 2800,< 500,< 2800
CCC(C)(CN)c1cc(Cl)cc(-c2ccnc3[nH]ncc23)c1 (stereo not drawn) [Compound 133],< 500,< 50,< 500
CC(CN)(CC(F)F)c1cccc(-c2ccnc3[nH]ncc23)c1 (stereo not drawn) [Compound 148],< 50,< 50,< 500
CC(C#N)(CC(F)F)c1cccc(-c2ccnc3[nH]ncc23)c1 (stereo not drawn) [Compound 99],< 2800,< 500,< 2800
CCCc1cc(-c2ccnc3[nH]nc(Cl)c23)cc(C(C)(CC)CN)c1 (stereo not drawn) [Compound 210],< 2800,< 50,< 500
FC(F)(F)c1n[nH]c2nccc(-c3cccc(C4(COCc5ccccc5)CC4)c3)c12 [Compound 289],> 2000,> 700,> 1200
C#CCC(C)(CN)c1cccc(-c2ccnc3[nH]ncc23)c1 (stereo not drawn) [Compound 135],< 50,< 50,< 50
Cc1cc(-c2ccnc3[nH]ncc23)cc(C2(CN)CCC2)c1 [Compound 145],< 2800,< 50,< 2800
Cc1cc(-c2ccnc3[nH]ncc23)cc(C(C)(C)CN)c1 [Compound 32],< 500,< 50,< 500
N#CC1(c2cccc(-c3ccnc4[nH]ncc34)c2)CC(F)(F)C1 [Compound 226],> 1200,> 700,> 1200

SMILES,Ki [1] [nM],Ki [2] [nM],Ki [3] [nM]
Cc1cc(-c2ccnc3[nH]nc(C4CC4)c23)cc(C2(CN)CC2)c1 [Compound 268],< 500,< 50,< 500
C=CCc1cc(-c2ccnc3[nH]ncc23)cc(C(C)(C)CC#N)c1 [Compound 217],> 2000,< 2800,> 1200
CCC(C)(C#N)c1cc(CCCO)cc(-c2ccnc3[nH]ncc23)c1 (stereo not drawn) [Compound 103],> 2000,< 50,< 2800
CCc1cc(-c2ccnc3[nH]nc(Cl)c23)cc(C2(CN)CCC2)c1 [Compound 211],< 2800,< 50,< 500
CC#CC[C@@](C)(CN)c1cccc(-c2ccnc3[nH]ncc23)c1 [Compound 186],< 2800,< 500,< 2800
CC#CCC(C)(C#N)c1cccc(-c2ccnc3[nH]ncc23)c1 (stereo not drawn) [Compound 104],< 2800,< 500,< 2800
N#CC1(c2cccc(-c3ccnc4[nH]nc(C(F)(F)F)c34)c2)CCC1 [Compound 279],< 2800,< 50,< 2800
CCCc1cc(-c2ccnc3[nH]ncc23)cc(C2(CN)CCCC2)c1 [Compound 147],> 2800,< 500,> 2800
CCC(CN)c1cccc(-c2ccnc3[nH]ncc23)c1 (stereo not drawn) [Compound 232],< 500,< 50,< 500
COc1ccc(C2(CN)CCC2)cc1-c1ccnc2[nH]ncc12 [Compound 222],> 2000,> 700,> 1200
CCC(C)(CN)c1cc(F)cc(-c2ccnc3[nH]nc(C(F)(F)F)c23)c1 (stereo not drawn) [Compound 277],< 50,< 50,< 50
CCCc1cc(-c2ccnc3[nH]ncc23)cc(C(C)(CC)CN)c1 (stereo not drawn) [Compound 130],< 2800,< 50,< 2800
CC(C#N)(CC1CC1)c1cccc(-c2ccnc3[nH]ncc23)c1 (stereo not drawn) [Compound 80],> 2800,< 500,< 2800
CC#CCC(C)(CN)c1cccc(-c2ccnc3[nH]ncc23)c1 (stereo not drawn) [Compound 155],< 50,< 50,< 500
CCc1n[nH]c2nccc(-c3cc(F)cc(C4(CN)CCC4)c3)c12 [Compound 263],< 500,< 50,< 50
CCC(C)(C#N)c1cc(CC#N)cc(-c2ccnc3[nH]ncc23)c1 (stereo not drawn) [Compound 126],> 2000,< 500,> 1200
CC(C)(O)C#Cc1cc(-c2ccnc3[nH]nc(C(F)(F)F)c23)cc(C2(C#N)CC2)c1 [Compound 315],> 1200,< 2800,> 1200
NCC1CCc2ccc(-c3ccnc4[nH]ncc34)cc21 (stereo not drawn) [Compound 308],< 500,< 500,> 1200
CCC(C)(C#N)c1cc(/C=C/C#N)cc(-c2ccnc3[nH]ncc23)c1 (stereo not drawn) [Compound 124],> 2000,> 700,> 1200
CCCc1cc(-c2ccnc3[nH]ncc23)cc(C2(C#N)CCCC2)c1 [Compound 97],> 2800,< 500,> 2800
N#CC1(c2cccc(-c3ccnc4[nH]ncc34)c2)CC1 [Compound 98],< 500,< 50,< 2800
N#CC(CCO)c1cccc(-c2ccnc3[nH]ncc23)c1 (stereo not drawn) [Compound 224],> 2000,< 500,> 1200
